Entries after “also recorded” stand apart in the source; their conditions may differ.
Legend:
[1] = molecular target: NET (Rattus norvegicus, UniProt Q63380); assay: Functional uptake profile, rat NET; format: cell-based
[2] = test system: rat (immobility in forced swim test); assay: Forced swim test (behavioral despair assay); format: in vivo
From the text: The objective of this study was to assess the antidepressant effects of test compounds in the behaviral despair assay in rats using a modification of a method described by Porsolt R. D. et al. in Behavioral despair in rats: a new model sensitive to antidepressant treatment, Eur. J. Pharmacol., 47: 379-391, 1978; Porsolt et al., Nature 266: 730-732, 1977; and Porsolt et al., in Psychopharmacology, Olivier, Mos, and Slangen (eds) Birkhauser Verlag, Basel, pp. 137-159, 1991. Briefly, when mice (or rats) are forced to swim in a cylinder from which no escape is possible, they readily adopt a characteristic immobile posture and make no further attempts to escape except for small movements needed to keep floating. The immobility is considered by some to reflect a “depressive mood” (Porsolt et al., Nature 266: 730-732, 1977) in which animals cease to struggle to escape the aversive situation. The immobility induced by the procedure is influenced by a wide variety of antidepressants (Porsolt et al., in Psychopharmacology, Olivier, Mos, and Slangen (eds). Birkhauser. Verlag, Basel, pp. 137-159, 1991) and has a good predictive validity in that it detects antidepressants with different mechanisms of action (TCAs, SSRIs, MAOIs, and other atypical ones). The test is sensitive to muscle-relaxant (benzodiazepines) and sedative (neuroleptics) effects, leading to enhanced immobility (Porsolt et al., supra).
In a typical experiment, animals are placed singly into a cylinder (e.g. 46×30 cm) containing fresh water at about 20° C. for 6 minutes. The activity (or immobility) of the animal is measured by an observer minute by minute. In more detail, the animals were preconditioned in a pretest session, where the rats were individually forced to swim inside a vertical plexiglass cylinder containing water maintained at 19-20° C. After 15 minutes in the water, they were allowed to dry for 15 minutes in a heated enclosure. Twenty four hours later, the compounds were administered either intraperitoneally or orally to the animals. One hour after administration of the test compound, animals were put back into the cylinder containing water. The total duration of immobility was measured during the last 4 minutes of a 6 minute test.
The results are expressed as the percentage of variation of the total duration of immobility calculated from the mean value of the vehicle-treated group (% variation=[(immobility duration of vehicle−immobility duration of test compound)/(immobility duration of vehicle)]×100%). Only compounds which exibit a statistically significant variation (e.g. >30%) are considered effective in this in vivo model.
Sibutramine (2.0 and 2.5 mg/kg), Bupropion (7.5 and 10 mg/kg), and Imipramine (30 mg/kg) were similarly administered as controls. […] Asterisks indicate highly statistical significant results.
A fourth DAT inhibitor, CNS-28,002 was administered p.o. as a racemic mixture of diastereomers at either 35 or 75 mg/kg. Sibutramine (5.0 and 3.75 mg/kg), Bupropion (30 and 40 mg/kg), and Imipramine (100 mg/kg) were similarly administered as controls.
Sibutramine (5.0 and 3.75 mg/kg), Bupropion (30 and 40 mg/kg), and Imipramine (100 mg/kg) were similarly administered as controls.

[3] = test system: rat; assay: Acute single-dose toxicology (maximum tolerated dose); format: in vivo; details: for observed toxicological effects: rat (n = 5), i.v., observed for 72 hours
Experimental: An in vivo evaluation was carried out to determine the maximum tolerated dose of numerous test compounds in rat. The compounds were administered i.v., and the animals were then observed for 72 hours.
Briefly, experimental rats, in groups of 5 animals, were administered with various doses of respective DAT inhibitors (e.g. 30, 90, 120, and 200 mg/kg), and the observed toxicological effects were recorded.

[4] = molecular target: T1, 5-HT (serotonine uptake) (Homo sapiens, UniProt P31645); format: cell-based; details: functional uptake
T1 construct: expressed in transfected cells; host or cells: HEK-293
T1 sequence (P31645 whole entry): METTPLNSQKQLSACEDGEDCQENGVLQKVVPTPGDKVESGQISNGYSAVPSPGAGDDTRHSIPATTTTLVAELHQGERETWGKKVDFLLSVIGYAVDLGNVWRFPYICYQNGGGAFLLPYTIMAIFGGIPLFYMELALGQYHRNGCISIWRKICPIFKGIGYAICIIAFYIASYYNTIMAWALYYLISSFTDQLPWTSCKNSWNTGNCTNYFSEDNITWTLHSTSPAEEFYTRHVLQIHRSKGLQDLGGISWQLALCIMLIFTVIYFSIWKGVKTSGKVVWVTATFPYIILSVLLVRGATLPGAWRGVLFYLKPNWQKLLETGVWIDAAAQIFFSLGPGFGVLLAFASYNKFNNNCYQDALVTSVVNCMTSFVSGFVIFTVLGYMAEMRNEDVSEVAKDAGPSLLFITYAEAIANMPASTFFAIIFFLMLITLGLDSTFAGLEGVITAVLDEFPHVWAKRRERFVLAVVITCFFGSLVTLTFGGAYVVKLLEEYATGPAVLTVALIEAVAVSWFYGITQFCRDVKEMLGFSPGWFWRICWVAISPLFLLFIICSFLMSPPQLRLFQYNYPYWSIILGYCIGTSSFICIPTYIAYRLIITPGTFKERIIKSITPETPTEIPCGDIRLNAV
Experimental: (§1) Functional activity of the compounds was determined in vitro in cellular assays using recombinant human cell lines.

[5] = molecular target: T2, DAT (Homo sapiens, UniProt Q01959); format: cell-based; details: functional uptake
T2 construct: expressed in transfected cells
T2 sequence (Q01959 whole entry): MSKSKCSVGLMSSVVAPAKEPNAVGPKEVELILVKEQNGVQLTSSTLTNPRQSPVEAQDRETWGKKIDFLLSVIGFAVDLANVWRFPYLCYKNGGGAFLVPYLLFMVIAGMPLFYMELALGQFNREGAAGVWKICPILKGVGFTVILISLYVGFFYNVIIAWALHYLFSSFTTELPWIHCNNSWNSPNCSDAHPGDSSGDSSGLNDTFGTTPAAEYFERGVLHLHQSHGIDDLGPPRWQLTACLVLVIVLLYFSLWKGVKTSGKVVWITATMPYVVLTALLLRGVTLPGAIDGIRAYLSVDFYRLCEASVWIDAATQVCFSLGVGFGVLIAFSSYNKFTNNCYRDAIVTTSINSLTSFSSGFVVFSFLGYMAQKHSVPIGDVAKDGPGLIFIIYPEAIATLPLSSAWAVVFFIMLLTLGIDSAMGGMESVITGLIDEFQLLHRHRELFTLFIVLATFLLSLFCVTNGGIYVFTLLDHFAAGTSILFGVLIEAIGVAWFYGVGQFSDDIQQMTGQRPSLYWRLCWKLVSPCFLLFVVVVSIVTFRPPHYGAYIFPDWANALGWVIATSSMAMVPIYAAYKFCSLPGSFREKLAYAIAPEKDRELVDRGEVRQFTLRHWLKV
Experimental: as §1

[6] = molecular target: T3, NET (Homo sapiens, UniProt P23975); assay: Functional norephinephrine uptake inhibition, MDCK cell line; format: cell-based
T3 construct: expressed in transfected cells; host or cells: MDCK
T3 sequence (P23975 whole entry): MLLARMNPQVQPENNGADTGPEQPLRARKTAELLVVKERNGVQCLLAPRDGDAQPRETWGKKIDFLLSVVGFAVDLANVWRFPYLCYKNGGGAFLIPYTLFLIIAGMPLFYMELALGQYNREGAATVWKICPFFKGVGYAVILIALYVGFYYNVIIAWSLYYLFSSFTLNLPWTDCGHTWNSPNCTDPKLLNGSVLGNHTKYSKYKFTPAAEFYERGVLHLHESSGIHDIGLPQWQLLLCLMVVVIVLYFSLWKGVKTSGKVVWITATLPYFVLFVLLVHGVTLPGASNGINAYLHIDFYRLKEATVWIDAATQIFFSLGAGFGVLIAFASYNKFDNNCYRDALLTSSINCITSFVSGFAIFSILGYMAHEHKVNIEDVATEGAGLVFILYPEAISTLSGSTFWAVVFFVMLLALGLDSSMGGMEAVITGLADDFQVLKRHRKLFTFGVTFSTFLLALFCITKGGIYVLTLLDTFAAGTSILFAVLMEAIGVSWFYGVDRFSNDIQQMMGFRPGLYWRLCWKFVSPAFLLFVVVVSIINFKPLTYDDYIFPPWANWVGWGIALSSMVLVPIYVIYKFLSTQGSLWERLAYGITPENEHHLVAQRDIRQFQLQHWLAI
Experimental: as §1

[7] = test system: Sprague-Dawley rats; assay: 7-day multidose oral dosing toxicology study; details: 7 days; for observed symptoms: Sprague-Dawley rats (n = 6; 3M/3F), oral
Experimental: The oral doses tested are 50 mg/kg/day, 100 mg/kg/day, 200 mg/kg/day, and 400 mg/kg/day.

[8] = i.p., e.g. 7.5 and 15 mg/kg, racemic mixtures of diastereomers, FIG. 2
[9] = p.o., 35 or 75 mg/kg, FIG. 3 and FIG. 4
[10] = single dose 200 mg/kg, 200 mg/kg

NET (Rattus norvegicus, UniProt Q63380), sequence (Q63380 1-617): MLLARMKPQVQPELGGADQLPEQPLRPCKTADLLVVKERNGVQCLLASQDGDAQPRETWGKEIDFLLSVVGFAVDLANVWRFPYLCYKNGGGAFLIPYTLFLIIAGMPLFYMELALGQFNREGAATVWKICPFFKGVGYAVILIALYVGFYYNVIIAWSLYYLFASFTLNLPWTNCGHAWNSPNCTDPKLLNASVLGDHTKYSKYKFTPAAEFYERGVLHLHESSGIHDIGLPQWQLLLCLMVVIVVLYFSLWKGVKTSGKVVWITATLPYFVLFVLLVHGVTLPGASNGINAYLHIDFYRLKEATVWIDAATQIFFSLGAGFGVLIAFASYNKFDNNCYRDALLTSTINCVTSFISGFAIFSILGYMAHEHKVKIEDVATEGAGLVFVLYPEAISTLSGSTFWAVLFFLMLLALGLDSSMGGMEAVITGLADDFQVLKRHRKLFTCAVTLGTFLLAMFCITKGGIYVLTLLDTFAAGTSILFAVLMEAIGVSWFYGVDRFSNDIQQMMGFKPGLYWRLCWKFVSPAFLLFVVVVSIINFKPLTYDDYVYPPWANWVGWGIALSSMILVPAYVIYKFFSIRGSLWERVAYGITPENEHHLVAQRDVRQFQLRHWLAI

For `CC1CCN(CC2(c3ccc(Cl)cc3)CCC2)CC1COc1ccc(C(F)(F)F)cc1` (centres unmarked) [CNS-27,100], the EC50 [1] was 1000 nM, the “in vivo efficacy in forced swim test compared with commercial drugs” value [2, 8] was “performed equally well, if not better, than the commercial drugs Sibutramine, Bupropion, and Imipramine” and the “in vivo efficacy in forced swim test compared with commercial drugs” value [2, 9] was “performed equally well, if not better, than the commercial drugs Sibutramine, Bupropion, and Imipramine”. For the same molecule, the observed toxicological effects [3, 10] was “decreased grip strength, and slight depression” and the “doses tolerated well with no significant observed symptoms” value ([3]; rat, single dose) was “below 120 mg/kg”.
With `CC1C(COc2ccc(C(F)(F)F)cc2)CCCN1CC(O)C1(c2ccc(Cl)cc2)CCC1` (centres unmarked) [CNS-28,002] the “in vivo efficacy in forced swim test compared with commercial drugs” value [2, 9] was “performed equally well, if not better, than the commercial drugs Sibutramine, Bupropion, and Imipramine” and the observed toxicological effects [3, 10] was “no observed symptoms”.
`CC1CCC(COc2ccc(C(F)(F)F)cc2)CN1CC1(c2ccc(Cl)cc2)CCC1` (centres unmarked) [CNS-28,100] was tested, and the EC50 [1] was 300 nM and the “in vivo efficacy in forced swim test compared with commercial drugs” value [2, 8] was “performed equally well, if not better, than the commercial drugs Sibutramine, Bupropion, and Imipramine”.
For `CC1CCC(COc2ccc(C(F)(F)F)cc2)CN1CC(O)C1(c2ccc(Cl)cc2)CCC1` (centres unmarked) [CNS-28,200], the “in vivo efficacy in forced swim test compared with commercial drugs” value [2, 8] was “performed equally well, if not better, than the commercial drugs Sibutramine, Bupropion, and Imipramine”, the observed toxicological effects ([3]; single dose 120 mg/kg, 120 mg/kg) was “decreased grip strength and limb tone and convulsions” and the observed toxicological effects [3, 10] was “Convulsions”. The “toxic dose relative to the effective dose shown in FIG. 2” value ([3]; rat, dose with convulsions vs forced swim test effective dose) was “about 10 times”.
`CC(C)C[C@@H](N)C1(c2ccc(Cl)cc2)CCC1` [R-DDMS] gave an EC50 [4] of 1500 nM, an EC50 [5] of 100 nM and an EC50 [6] of 200 nM.
`CN[C@H](CC(C)C)C1(c2ccc(Cl)cc2)CCC1` [R-DMS] was tested, and the EC50 [4] was 1500 nM, the EC50 [5] was 30 nM and the EC50 [6] was 300 nM.
In the case of `CC(C)CC(N(C)C)C1(c2ccc(Cl)cc2)CCC1` (centres unmarked) [Sibutramine], the observed symptoms ([7]; 100 mg/kg/day) is reported as “decreased grip strength, depression”, the observed symptoms ([7]; 400 mg/kg/day) is reported as “convulsions; also recorded: Convulsions;” and the “deaths (number of animals)” value ([7]; n = 6, oral, 200 mg/kg/day) is reported as 2 deaths. For the same molecule, the “self mutilation (number of animals)” value ([7]; n = 6, oral, 200 mg/kg/day) was 6 self mutilation.

— patent US8258305B2, “Dopamine transporter inhibitors for use in treatment of movement disorders and other CNS indications” (Prexa Pharmaceuticals, Inc., priority 2005, dated 2012)
